# Patent US20020035061A1, “COMPOSITIONS AND METHODS FOR TREATING INFECTIONS USING CATIONIC PEPTIDES ALONE OR IN COMBINATION WITH ANTIBIOTICS” (priority 1996, published 2002)
# Read-outs that look alike come from different tables or passages of the source.
# Legend:
# Format in all cases: cell-based
# K. pneumoniae = system: K. pneumoniae
# E. coli = system: E. coli
# S. marcescens = system: S. marcescens
# A. calcoaceticus = system: A. calcoaceticus
# S. maltophilia = system: S. maltophilia
# E. faecalis = system: E. faecalis
# P. aeruginosa = system: P. aeruginosa
# E. cloacae = E. cloacae ECL007
# S. aureus = system: S. aureus
# bacterial isolates = assay: microbe, parasite or virus in culture
# [1] = system: vancomycin / teicoplanin resistant enterococci; assay: microbe, parasite or virus in culture; details: for Peptide MIC Alone: Amikacin section; for FIC: peptide + Amikacin
# [2] = system: inherently resistant microorganisms; assay: microbe, parasite or virus in culture; details: for Peptide MIC Alone: Amikacin section; for FIC: peptide + Amikacin
# [3] = system: microorganisms with acquired resistance; assay: microbe, parasite or virus in culture; details: for Peptide MIC Alone: Gentamicin section; for FIC: peptide + Gentamicin
# [4] = 4. Gentamicin, S. maltophilia SMA017
# [5] = peptide + Gentamicin, S. maltophilia SMA017
# [6] = S. maltophilia (strain line r400 not shown)
sequence,measurement,setting,value
ILRNPNNPNRRK [MBI 11B7CNF12],MIC,K. pneumoniae; K. pneumoniae strain KP001,16 µg/mL
same,MIC,E. coli; E. coli strain ECO005,16 µg/mL
same,MIC,S. marcescens; S. marcescens strain SMS003,>128 µg/mL
same,MIC,A. calcoaceticus; A. calcoaceticus strain AC002,4 µg/mL
same,MIC,S. maltophilia; S. maltophilia strain SMA002,64 µg/mL
same,MIC,E. faecalis; E. faecalis strain EFS001,2 µg/mL
same,MIC,P. aeruginosa; P. aeruginosa strain PA004,>128 µg/mL
ILKKWPNNPNRRK [MBI 11CNW1],MIC,K. pneumoniae; K. pneumoniae KP001,32 µg/mL
same,MIC,E. cloacae,64 µg/mL
same,MIC,E. coli; E. coli ECO005,32 µg/mL
same,MIC,S. aureus; S. aureus SA010,4 µg/mL
same,MIC,S. marcescens; S. marcescens SMS003,>128 µg/mL
same,MIC,A. calcoaceticus; A. calcoaceticus AC002,8 µg/mL
same,MIC,S. maltophilia; S. maltophilia SMA002,32 µg/mL
same,MIC,E. faecalis; E. faecalis EFS001,8 µg/mL
same,MIC,P. aeruginosa; P. aeruginosa PA004,64 µg/mL
KWKLFIKKLTPAVKKVLLTGLPALIS [MBI 29F1],Peptide MIC Alone,"bacterial isolates; 1. Amikacin, A. baumannii ABI001",8 µg/mL
same,Peptide MIC Alone,"bacterial isolates; 1. Amikacin, A. baumannii ABI003",4 µg/mL
same,Peptide MIC Alone,"bacterial isolates; 1. Amikacin, E. coli ECO022",4 µg/mL
same,Peptide MIC Alone,"bacterial isolates; 1. Amikacin, E. faecalis EFS008",4 µg/mL
same,Peptide MIC Alone,"bacterial isolates; 1. Amikacin, E. faecium EFM004",32 µg/mL
same,Peptide MIC Alone,"bacterial isolates; 1. Amikacin, P. aeruginosa PA022",4 µg/mL
same,Peptide MIC Alone,"bacterial isolates; 1. Amikacin, S. aureus SA014 MRSA",4 µg/mL
same,Peptide MIC Alone,"bacterial isolates; 1. Amikacin, S. epidermidis SE002",32 µg/mL
same,Peptide MIC Alone,"bacterial isolates; 1. Amikacin, S. epidermidis SE003",32 µg/mL
same,Peptide MIC Alone,"bacterial isolates; 1. Amikacin, S. maltophilia SMA021",8 µg/mL
same,Peptide MIC Alone,"bacterial isolates; 1. Amikacin, S. maltophilia SMA022",16 µg/mL
same,Peptide MIC Alone,"bacterial isolates; 4. Gentamicin, P. aeruginosa PA023",128 µg/mL
same,Peptide MIC Alone,"bacterial isolates; 4. Gentamicin, S. maltophilia SMA016",32 µg/mL
same,Peptide MIC Alone,bacterial isolates; [4],4 µg/mL
same,Amikacin MIC + Peptide,bacterial isolates; A. baumannii ABI001,0.25 µg/mL
same,Peptide MIC + Amikacin,bacterial isolates; A. baumannii ABI001,4 µg/mL
same,Amikacin MIC + Peptide,bacterial isolates; A. baumannii ABI003,2 µg/mL
same,Peptide MIC + Amikacin,bacterial isolates; A. baumannii ABI003,2 µg/mL
same,Peptide MIC + Amikacin,bacterial isolates; E. coli ECO022,2 µg/mL
same,Amikacin MIC + Peptide,bacterial isolates; E. faecalis EFS008,16 µg/mL
same,Peptide MIC + Amikacin,bacterial isolates; E. faecalis EFS008,0.125 µg/mL
same,Amikacin MIC + Peptide,bacterial isolates; E. faecium EFM004,32 µg/mL
same,Peptide MIC + Amikacin,bacterial isolates; E. faecium EFM004,8 µg/mL
same,Amikacin MIC + Peptide,bacterial isolates; P. aeruginosa PA022,64 µg/mL
same,Peptide MIC + Amikacin,bacterial isolates; P. aeruginosa PA022,0.125 µg/mL
same,Gentamicin MIC + Peptide,bacterial isolates; P. aeruginosa PA023,0.125 µg/mL
same,Peptide MIC + Gentamicin,bacterial isolates; P. aeruginosa PA023,64 µg/mL
same,Amikacin MIC + Peptide,bacterial isolates; S. aureus SA014 MRSA,16 µg/mL
same,Peptide MIC + Amikacin,bacterial isolates; S. aureus SA014 MRSA,0.125 µg/mL
same,Amikacin MIC + Peptide,bacterial isolates; S. epidermidis SE002,16 µg/mL
same,Peptide MIC + Amikacin,bacterial isolates; S. epidermidis SE002,4 µg/mL
same,Amikacin MIC + Peptide,bacterial isolates; S. epidermidis SE003,16 µg/mL
same,Peptide MIC + Amikacin,bacterial isolates; S. epidermidis SE003,8 µg/mL
same,Gentamicin MIC + Peptide,bacterial isolates; S. maltophilia SMA016,16 µg/mL
same,Peptide MIC + Gentamicin,bacterial isolates; S. maltophilia SMA016,16 µg/mL
same,Gentamicin MIC + Peptide,bacterial isolates; S. maltophilia SMA017,32 µg/mL
same,Peptide MIC + Gentamicin,bacterial isolates; S. maltophilia SMA017,0.125 µg/mL
same,Amikacin MIC + Peptide,bacterial isolates; S. maltophilia SMA021,8 µg/mL
same,Peptide MIC + Amikacin,bacterial isolates; S. maltophilia SMA021,2 µg/mL
same,Amikacin MIC + Peptide,bacterial isolates; S. maltophilia SMA022,16 µg/mL
same,Peptide MIC + Amikacin,bacterial isolates; S. maltophilia SMA022,4 µg/mL
same,FIC,"bacterial isolates; peptide + Amikacin, A. baumannii ABI001",0.51
same,FIC,"bacterial isolates; peptide + Amikacin, A. baumannii ABI003",0.63
same,FIC,"bacterial isolates; peptide + Amikacin, E. coli ECO022",0.51
same,FIC,"bacterial isolates; peptide + Amikacin, E. faecalis EFS008",0.28
same,FIC,"bacterial isolates; peptide + Amikacin, E. faecium EFM004",0.38
same,FIC,"bacterial isolates; peptide + Amikacin, P. aeruginosa PA022",0.53
same,FIC,"bacterial isolates; peptide + Amikacin, S. aureus SA014 MRSA",0.53
same,FIC,"bacterial isolates; peptide + Amikacin, S. epidermidis SE002",0.38
same,FIC,"bacterial isolates; peptide + Amikacin, S. epidermidis SE003",0.50
same,FIC,"bacterial isolates; peptide + Amikacin, S. maltophilia SMA021",0.31
same,FIC,"bacterial isolates; peptide + Amikacin, S. maltophilia SMA022",0.31
same,FIC,"bacterial isolates; peptide + Gentamicin, P. aeruginosa PA023",0.52
same,FIC,"bacterial isolates; peptide + Gentamicin, S. maltophilia SMA016",0.56
same,FIC,bacterial isolates; [5],0.53
same,Amikacin MIC + Peptide,[1]; E. faecalis EFS008,4 µg/mL
same,Peptide MIC + Amikacin,[1]; E. faecalis EFS008,0.5 µg/mL
same,Peptide MIC Alone,[1]; E. faecalis EFS008,4 µg/mL
same,Amikacin MIC + Peptide,[1]; E. faecium EFM004,8 µg/mL
same,Peptide MIC + Amikacin,[1]; E. faecium EFM004,16 µg/mL
same,Peptide MIC Alone,[1]; E. faecium EFM004,32 µg/mL
same,FIC,[1]; E. faecalis EFS008,0.19
same,FIC,[1]; E. faecium EFM004,0.53
same,Peptide MIC + Amikacin,[2]; A. baumannii,2 µg/mL
same,Peptide MIC Alone,[2]; A. baumannii,8 µg/mL
same,Peptide MIC + Amikacin,[2]; S. maltophilia,2 µg/mL
same,FIC,[2]; A. baumannii,0.75
same,Gentamicin MIC + Peptide,[3]; A. calcoaceticus AC001,2 µg/mL
same,Peptide MIC + Gentamicin,[3]; A. calcoaceticus AC001,4 µg/mL
same,Peptide MIC Alone,[3]; A. calcoaceticus AC001,8 µg/mL
same,Gentamicin MIC + Peptide,[3]; P. aeruginosa PA023,0.125 µg/mL
same,Peptide MIC + Gentamicin,[3]; P. aeruginosa PA023,64 µg/mL
same,Peptide MIC Alone,[3]; P. aeruginosa PA023,128 µg/mL
same,FIC,[3]; A. calcoaceticus AC001,0.75
same,FIC,[3]; P. aeruginosa PA023,0.52
ILPWKWPWWPWRR [MBI 10],MIC,K. pneumoniae; K. pneumoniae KP001,128 µg/mL
same,MIC,E. coli; E. coli ECO002,128 µg/mL
same,MIC,S. aureus; S. aureus SA007,2 µg/mL
same,MIC,S. marcescens; S. marcescens SMS003,>128 µg/mL
same,MIC,A. calcoaceticus; A. calcoaceticus AC001,128 µg/mL
same,MIC,S. maltophilia; S. maltophilia SMA001,128 µg/mL
same,MIC,E. faecalis; E. faecalis EFS004,8 µg/mL
same,MIC,P. aeruginosa; P. aeruginosa PA003,>128 µg/mL
"KKAAAKAAAAAKAAWAAKAAAKKKK [Deber A2KA2, reference compound]",Peptide MIC Alone,"bacterial isolates; 4. Gentamicin, A. baumannii ABI001",>128 µg/mL
same,Peptide MIC Alone,"bacterial isolates; 4. Gentamicin, A. baumannii ABI002",>128 µg/mL
same,Peptide MIC Alone,"bacterial isolates; 4. Gentamicin, A. calcoaceticus AC001",>128 µg/mL
same,Peptide MIC Alone,"bacterial isolates; 4. Gentamicin, P. aeruginosa PA022",>128 µg/mL
same,Peptide MIC Alone,"bacterial isolates; 4. Gentamicin, P. aeruginosa PA041",>128 µg/mL
same,Peptide MIC Alone,"bacterial isolates; 4. Gentamicin, S. maltophilia (strain line r400 not shown)",>128 µg/mL
same,Peptide MIC Alone,bacterial isolates; [4],>128 µg/mL
same,Gentamicin MIC + Peptide,bacterial isolates; A. baumannii ABI001,32 µg/mL
same,Peptide MIC + Gentamicin,bacterial isolates; A. baumannii ABI001,8 µg/mL
same,Gentamicin MIC + Peptide,bacterial isolates; A. baumannii ABI002,32 µg/mL
same,Peptide MIC + Gentamicin,bacterial isolates; A. baumannii ABI002,0.125 µg/mL
same,Gentamicin MIC + Peptide,bacterial isolates; A. calcoaceticus AC001,4 µg/mL
same,Peptide MIC + Gentamicin,bacterial isolates; A. calcoaceticus AC001,16 µg/mL
same,Gentamicin MIC + Peptide,bacterial isolates; P. aeruginosa PA022,16 µg/mL
same,Peptide MIC + Gentamicin,bacterial isolates; P. aeruginosa PA022,4 µg/mL
same,Gentamicin MIC + Peptide,bacterial isolates; P. aeruginosa PA041,8 µg/mL
same,Peptide MIC + Gentamicin,bacterial isolates; P. aeruginosa PA041,0.125 µg/mL
same,Gentamicin MIC + Peptide,bacterial isolates; [6],64 µg/mL
same,Peptide MIC + Gentamicin,bacterial isolates; [6],0.125 µg/mL
same,Gentamicin MIC + Peptide,bacterial isolates; S. maltophilia SMA017,64 µg/mL
same,Peptide MIC + Gentamicin,bacterial isolates; S. maltophilia SMA017,0.125 µg/mL
same,FIC,"bacterial isolates; peptide + Gentamicin, A. baumannii ABI001",0.53
same,FIC,"bacterial isolates; peptide + Gentamicin, A. baumannii ABI002",0.50
same,FIC,"bacterial isolates; peptide + Gentamicin, A. calcoaceticus AC001",0.56
same,FIC,"bacterial isolates; peptide + Gentamicin, P. aeruginosa PA022",0.52
same,FIC,"bacterial isolates; peptide + Gentamicin, P. aeruginosa PA041",0.50
same,FIC,"bacterial isolates; peptide + Gentamicin, S. maltophilia (strain line r400 not shown)",0.50
same,FIC,bacterial isolates; [5],0.50
same,Amikacin MIC + Peptide,[1]; E. faecalis EFS008,8 µg/mL
same,Peptide MIC + Amikacin,[1]; E. faecalis EFS008,16 µg/mL
same,Peptide MIC Alone,[1]; E. faecalis EFS008,>128 µg/mL
same,FIC,[1]; E. faecalis EFS008,0.19
same,Peptide MIC + Amikacin,[2]; A. baumannii,32 µg/mL
same,Peptide MIC Alone,[2]; A. baumannii,>128 µg/mL
same,Peptide MIC + Amikacin,[2]; S. aureus MRSA,8 µg/mL
same,Peptide MIC Alone,[2]; S. aureus MRSA,16 µg/mL
same,FIC,[2]; A. baumannii,0.63
same,FIC,[2]; S. aureus MRSA,0.50
same,Gentamicin MIC + Peptide,[3]; A. calcoaceticus AC001,4 µg/mL
same,Peptide MIC + Gentamicin,[3]; A. calcoaceticus AC001,16 µg/mL
same,Peptide MIC Alone,[3]; A. calcoaceticus AC001,>128 µg/mL
same,Gentamicin MIC + Peptide,[3]; P. aeruginosa PA041,4 µg/mL
same,Peptide MIC + Gentamicin,[3]; P. aeruginosa PA041,64 µg/mL
same,Peptide MIC Alone,[3]; P. aeruginosa PA041,>128 µg/mL
same,FIC,[3]; A. calcoaceticus AC001,0.56
same,FIC,[3]; P. aeruginosa PA041,0.50
